Assay results reported in patent US5371102A, “Compositions and methods of inhibiting thyroid activity” (priority 1993, dated 1994).

Tests used:
peroxidase = assay: peroxidase/H2O2/I- triiodide formation with DMIT; assay type: biochemical; conditions: H2O2 and I-, varying quantities of DMIT
Protocol: DMIT was synthesized according to the published method by Maier, Helv. Chim. Acta, Vol. 53, p. 1417 (1970). Varying quantities of DMIT were incubated with peroxidase, H2 O2 and I^-. Triiodide formation was observed spectrophotometrically as a function of time. […] An initial lag phase was dependent on the amount of thione used, followed by a rate increase to approximately the control rate.

LPX [1] = molecular target: T1, LPX (Bos taurus, UniProt P80025); assay: LPX-catalyzed iodide ion oxidation (triiodide formation); assay type: biochemical, bovine; conditions: LPX, H2O2, iodide ion
T1 construct: purchased Sigma Chemical Company
Source text: Materials used in the examples below were obtained from the following sources. Bovine LPX, bovine liver catalase, glucose oxidase, 30% hydrogen peroxide, glucose, guaiacol, ABTS and deuterium oxide were purchased from Sigma Chemical Company. Selenium dioxide, MBI ^13 CH3 I and PBA were purchased from Aldrich Chemical Company and PBA was purified as previously described by Fieset et al., Reagents for Organic Synthesis, Vol. I, pp.135-139, John Wiley and Sons, N.Y. (1967). LPX purity was checked by PAGE, as described by Doerge, D.R., et al. in, Biochem. Pharmacol., Vol.36, pp.972-974 (1986). TPX was purified from hog thyroids obtained from a local slaughterhouse by published procedures. Doerge & Takazowa, Chemical Research in Toxicology, Vol. 3, pp. 98-101 (1990). TPX purity was determined by LC and its concentration determined spectophotometrically. Hydroperoxide concentrations were determined by iodometric titration, as described by Kolthoff, et al., in "Quantitative Chemical Analysis", Macmillan, London, pp.842-860 (1969). MMBI, and BI were synthesized by published procedures as described by Doerge, D.R., Biochem, Vol. 27, pp. 3697-3700 (1988) and were recrystallized from aqueous ethanol. MeBI was purified by distillation and DMeBI^+ was synthesized and purified by recrystallization from ethyl acetate/methanol. 1-^13 C-MMBI was synthesized from ^13 CH3 I according to the procedure disclosed by Doerge, D.R., in, J. Lab. Comp. and Radiopharm., Vol.25, pp.985-990 (1988). PPHP and PPA were prepared, purified and analyzed as previously described by Doerge, Biochem, Vol.27, p.11 (1988). The methyl ester of 1-methyl-benzimidazole-2-sulfinic acid was prepared by addition of hydrogen peroxide (5 equivalents of a 10 M solution) to MMBI (0.1 M) in methanol. […]
Inhibition of LPX activity by thiones was determined from the kinetics of iodide ion, guaiacol or ABTS oxidation assays conducted at 25° C. Kinetic parameters of suicide inactivation were determined as previously described. […]

LPX [2] = molecular target: T1, LPX; assay: LPX iodide ion oxidation activity after incubation and dilution; assay type: biochemical, bovine; conditions: LPX/hydrogen peroxide, absence of iodide ion
Source text: Materials used in the examples below were obtained from the following sources. Bovine LPX, bovine liver catalase, glucose oxidase, 30% hydrogen peroxide, glucose, guaiacol, ABTS and deuterium oxide were purchased from Sigma Chemical Company. Selenium dioxide, MBI ^13 CH3 I and PBA were purchased from Aldrich Chemical Company and PBA was purified as previously described by Fieset et al., Reagents for Organic Synthesis, Vol. I, pp.135-139, John Wiley and Sons, N.Y. (1967). LPX purity was checked by PAGE, as described by Doerge, D.R., et al. in, Biochem. Pharmacol., Vol.36, pp.972-974 (1986). TPX was purified from hog thyroids obtained from a local slaughterhouse by published procedures. Doerge & Takazowa, Chemical Research in Toxicology, Vol. 3, pp. 98-101 (1990). TPX purity was determined by LC and its concentration determined spectophotometrically. Hydroperoxide concentrations were determined by iodometric titration, as described by Kolthoff, et al., in "Quantitative Chemical Analysis", Macmillan, London, pp.842-860 (1969). MMBI, and BI were synthesized by published procedures as described by Doerge, D.R., Biochem, Vol. 27, pp. 3697-3700 (1988) and were recrystallized from aqueous ethanol. MeBI was purified by distillation and DMeBI^+ was synthesized and purified by recrystallization from ethyl acetate/methanol. 1-^13 C-MMBI was synthesized from ^13 CH3 I according to the procedure disclosed by Doerge, D.R., in, J. Lab. Comp. and Radiopharm., Vol.25, pp.985-990 (1988). PPHP and PPA were prepared, purified and analyzed as previously described by Doerge, Biochem, Vol.27, p.11 (1988). The methyl ester of 1-methyl-benzimidazole-2-sulfinic acid was prepared by addition of hydrogen peroxide (5 equivalents of a 10 M solution) to MMBI (0.1 M) in methanol. The products, MeBI and the ester, were obtained following preparative TLC on silica (Uniplate, Analtech Co., Newark, DL) using 5% methanol/chloroform as eluant.
The following experiment was performed to determine the effect of DMMBI oxidation on LPX activity. LPX (0.1 μM, final concentration) was incubated with hydrogen peroxide (100 μM), iodide ion (5 mM) and DMMBI (100 μM), as indicated in Table 2. After a 100 second incubation at 25° C., an aliquot was diluted 200-fold and the iodide ion oxidation activity determined. Values shown in Table 2, are averages +/- standard deviations (n=4) of the percentage relative to untreated LPX.

LPX and TPX = assay: suicide inhibition of peroxidases (summary statements); assay type: biochemical

What does the source list for CN1CCN(C)C1=S [DMIT, 1,3-dimethylimidazolidine-2-thione]?
effect on triiodide formation (peroxidase): substantially the same as reported for DMMBI in Example 1 and Ac2 MBI in Example 2; inhibition of iodide ion oxidation (triiodide formation) (LPX [1]): Identical results; loss of enzymatic activity (LPX [2]): did not cause any loss of enzymatic activity; selectivity for iodide ion oxidation (LPX and TPX; alternate substrate mechanism): block only reactions involving iodide ion oxidation; suicide inhibition (LPX and TPX; summary of own examples): not suicide inhibitors
